Results from US8785499B2 (priority 2009, dated 2014).

Experiments:
[1] = molecular target: ecNadD (Escherichia coli (strain K12), UniProt P0A752); test: biochemical; type: biochemical
[2] = molecular target: baNadD (Bacillus anthracis, UniProt C3L5T6); test: biochemical; type: biochemical
Sequence of baNadD (C3L5T6 whole entry, looked up): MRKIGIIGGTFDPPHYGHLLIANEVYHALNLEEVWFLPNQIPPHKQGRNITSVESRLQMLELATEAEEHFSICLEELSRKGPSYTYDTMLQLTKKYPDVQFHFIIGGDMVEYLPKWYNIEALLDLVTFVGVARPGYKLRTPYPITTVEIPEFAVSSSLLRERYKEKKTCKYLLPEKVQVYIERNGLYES

| Compound | […]. coli [1] [%] | […]. anthracis [2] [%] |
| --- | --- | --- |
| O=C(O)c1ccc(Nc2nc(-c3ccc(Cl)cc3)cs2)cc1 [compound 030] | 22 | 28 |
| O=C(O)c1nccnc1C(=O)Nc1ccc(Br)cc1 [compound 031] | 21 | 4 |
| COc1c(C)cc(Br)cc1C(=O)Nc1ccc(S(N)(=O)=O)cc1 [compound 032] | 21 | 8 |
| Nc1cc(NCCCCCC(=O)O)ccc1[N+](=O)[O-] [compound 034] | 21 | 1 |
| CC(=O)Nc1ccc(NS(=O)(=O)c2ccc(O)c(C(=O)O)c2)cc1 [compound 035] | 20 | 0 |
| O=C(Nc1ccccc1C(=O)O)c1ccc(Br)o1 [compound 036] | 20 | 0 |
| COc1cc(Br)cc(/C=C2/SC(=S)NC2=O)c1O [compound 037] | 20 | 0 |
| Oc1c(Cl)cc(Cl)cc1/C=N/c1nc[nH]n1 [compound 038] | 20 | 0 |
| Nc1nonc1C(=O)N/N=C/c1cc(Br)cc(Br)c1O [compound 040] | 19 | 20 |
| O=C(O)[C@@H]1CSC(c2ccc(Cl)cc2Cl)N1 (stereo partly shown) [compound 041] | 19 | 39 |
| Nc1ccc(NC(=O)c2cc(Cl)ccc2O)c(Cl)c1 [compound 043] | 18 | 2 |
| Oc1c(Br)cc(Cl)cc1/C=N/c1ccccn1 [compound 044] | 17 | 0 |
| CCOc1cc(/C=N/O)cc(I)c1O [compound 045] | 17 | 0 |
| Cc1ccc(OCC(=O)Nc2nnc[nH]2)c(Br)c1 [compound 046] | 17 | 71 |
| O=c1cc(O)c2sc(Nc3cccc(Cl)c3)nc2[nH]1 [compound 047] | 17 | 0 |
| NS(=O)(=O)c1ccc(CCNC(=O)c2cccc(Cl)c2)cc1 [compound 048] | 16 | 14 |
| O=C(/C=C/c1ccc2c(c1)OCO2)Nc1ncc([N+](=O)[O-])s1 [compound 049] | 16 | 10 |
| NS(=O)(=O)c1ccc(NC(=O)c2cc3cc(Br)ccc3oc2=O)cc1 [compound 050] | 16 | 38 |
| Nc1nonc1C(=O)NCCNS(=O)(=O)Cc1ccccc1 [compound 051] | 16 | 0 |
| COC(=O)c1cc(O)c(C(=O)Nc2ccc(Cl)c(Cl)c2)s1 [compound 052] | 16 | 24 |
| CCc1c(O)nc(SC2CC(=O)N(c3ccccc3)C2=O)nc1O (stereo not shown) [compound 053] | 16 | 0 |
| Nc1ccc(/C=C/c2cccc(C(=O)O)n2)cc1 [compound 054] | 15 | 27 |
| CC(Sc1ccccc1)C(=O)Nc1ccccc1C(=O)O (stereo not shown) [compound 055] | 15 | 15 |
| O=[N+]([O-])c1ccc(/C=N\NS(=O)(=O)c2ccc(Cl)cc2)o1 [compound 057] | 15 | 28 |
| Nc1nnc(SCC(=O)Nc2nccs2)n1-c1ccccc1 [compound 058] | 15 | 0 |
| NS(=O)(=O)c1ccc2nc(NC(=O)c3ccncc3)sc2c1 [compound 059] | 15 | 0 |
| Oc1ccc(Br)cc1/C=N/Nc1nnn[nH]1 [compound 060] | 15 | 0 |

| Compound | […]. coli [1] [%] | […]. anthracis [2] [%] |
| --- | --- | --- |
| O=[N+]([O-])/C=C/Nc1cccc([N+](=O)[O-])c1 [compound 061] | 14 | 0 |
| N/C(=N\OCC(=O)Nc1ccc([NH2+][O-])cc1)c1nonc1N [compound 062] | 14 | 0 |
| O=[N+]([O-])c1cc2c(cc1/C=N/Nc1nnn[nH]1)OCO2 [compound 063] | 14 | 81 |
| CCn1c(SCC(N)=O)nnc1-c1ccc(Cl)cc1 [compound 065] | 14 | 0 |
| Cc1cc(N/C=C2\N=C(c3ccc(Cl)cc3)OC2=O)no1 [compound 066] | 13 | 80 |
| O=C(O)c1cc(C(=O)O)c2cc(Oc3ccc4nc(C(=O)O)cc(C(=O)O)c4c3)ccc2n1 [compound 067] | 13 | 1 |
| O=C1C/C(=C/NCCc2ccc(O)cc2)C(=O)N1 [compound 068] | 13 | 10 |
| CN1C(=O)S/C(=C\c2ccc(OCC(=O)O)c(I)c2)C1=O [compound 069] | 13 | 7 |
| O=C(O)/C=C/c1ccc(S(=O)(=O)NCc2ccc3c(c2)OCO3)cc1 [compound 070] | 13 | 5 |
| Cc1ccc(C(=O)Nc2ccccc2)cc1S(=O)(=O)Nc1ccccn1 [compound 071] | 12 | 7 |
| O=C(CSS(=O)(=O)O)NCCc1c[nH]c2ccccc12 [compound 072] | 12 | 0 |
| NS(=O)(=O)c1ccc(NC(=O)CSc2ccc3ccccc3n2)cc1 [compound 073] | 12 | 0 |
| CSc1ccc(/C=N/c2ccc(S(N)(=O)=O)cc2)cc1 [compound 076] | 12 | 0 |
| O=C(CSc1nc2ccccc2o1)Nc1ccc(Cl)cn1 [compound 077] | 12 | 0 |
| N=C(N)N/N=C/c1ccc([N+](=O)[O-])cc1 [compound 078] | 12 | 0 |
| O=C(NCCc1nc2ccccc2[nH]1)c1cccs1 [compound 079] | 12 | 0 |
| O=C(COc1ccc(Cl)cc1)N/N=C/c1cccs1 [compound 080] | 11 | 24 |
| NS(=O)(=O)c1ccc(NC(=O)CCc2ccccc2)cc1 [compound 081] | 11 | 0 |
| O=c1[nH]c2ccc(NC(=S)Nc3ccccc3)cc2[nH]1 [compound 083] | 11 | 0 |
| NS(=O)(=O)c1ccc(NC(=S)Nc2ccc(Cl)cc2F)cc1 [compound 084] | 11 | 0 |
| NS(=O)(=O)c1ccc(NC(=S)NCc2ccccc2)cc1 [compound 085] | 11 | 0 |
| O=C(Nc1ccc(O)cc1)c1ccc(Cl)c(Cl)c1 [compound 086] | 11 | 0 |
| O=C(O)CCNc1ccc(Br)cc1C(=O)O [compound 087] | 11 | 0 |
| Cc1nnc(SCC(=O)Nc2ccc(Cl)cn2)s1 [compound 088] | 11 | 0 |
| O=C(O)CC(NC(=O)c1ccccc1NC(=O)c1ccco1)C(=O)O (stereo not shown) [compound 089] | 10 | 37 |
| COc1cc(OC)cc(-c2cn[nH]c2N)c1 [compound 090] | 10 | 0 |
